Experimental data published in ChEMBL document CHEMBL1629662, “Antimicrobial activity of prulifloxacin tested against a worldwide collection of gastroenteritis-producing pathogens, including those causing traveler's diarrhea” (2009).
Values after ≈ are worked out from the molar mass of the structure shown.

Experiments:
Aeromonas sp. [1] = test: Antibacterial activity against Aeromonas sp. assessed as growth inhibition at 0.016 ug/ml by broth microdilution method; format: functional
Campylobacter coli = test: Antibacterial activity against Campylobacter coli by broth microdilution method; format: functional
Aeromonas sp. [2] = test: Antibacterial activity against Aeromonas sp. assessed as growth inhibition at 0.03 ug/ml by broth microdilution method; format: functional
Aeromonas caviae = test: Antibacterial activity against Aeromonas caviae by broth microdilution method; format: functional
Vibrio parahaemolyticus = test: Antibacterial activity against Vibrio parahaemolyticus assessed as percent resistant isolates by broth microdilution method; format: functional
Escherichia coli [3] = test: Antibacterial activity against Escherichia coli assessed as growth inhibition at 0.5 ug/ml by broth microdilution method; format: functional
Escherichia coli [4] = test: Antibacterial activity against Escherichia coli assessed as growth inhibition at 0.004 ug/ml by broth microdilution method; format: functional
Campylobacter sp. [5] = test: Antibacterial activity against Campylobacter sp. assessed as growth inhibition at =>4 ug/ml by broth microdilution method; format: functional
Shigella sp. [6] = test: Antibacterial activity against Shigella sp. assessed as growth inhibition at 0.12 ug/ml by broth microdilution method; format: functional
Yersinia sp. [7] = test: Antibacterial activity against Yersinia sp. assessed as growth inhibition at 0.004 ug/ml by broth microdilution method; format: functional; settings: Yersinia sp. (in: enterobacteria)
[8] = system: Yersinia pseudotuberculosis; test: Antibacterial activity against Yersinia pseudotuberculosis by broth microdilution method; format: functional
Vibrio fluvialis [9] = test: Antibacterial activity against Vibrio fluvialis by broth microdilution method; format: functional
Campylobacter jejuni = test: Antibacterial activity against Campylobacter jejuni assessed as percent resistant isolates by broth microdilution method; format: functional; settings: pooled result: one value given for 2 cell lines, strains, targets or settings
Aeromonas sp. [10] = test: Antibacterial activity against Aeromonas sp. assessed as growth inhibition at 0.25 ug/ml by broth microdilution method; format: functional
Aeromonas veronii [11] = test: Antibacterial activity against Aeromonas veronii by broth microdilution method; format: functional
Yersinia sp. [12] = test: Antibacterial activity against Yersinia sp. assessed as growth inhibition at 0.12 ug/ml by broth microdilution method; format: functional; settings: Yersinia sp. (in: enterobacteria)
Vibrio alginolyticus = test: Antibacterial activity against Vibrio alginolyticus by broth microdilution method; format: functional
Yersinia sp. [13] = test: Antibacterial activity against Yersinia sp. assessed as growth inhibition at 0.06 ug/ml by broth microdilution method; format: functional; settings: Yersinia sp. (in: enterobacteria)
Escherichia coli [14] = test: Antibacterial activity against enteroaggregative Escherichia coli assessed as percent susceptible isolates by broth microdilution method; format: functional
Escherichia coli [15] = test: Antibacterial activity against blood-borne Escherichia coli by broth microdilution method; format: functional
Escherichia coli [16] = test: Antibacterial activity against Escherichia coli by broth microdilution method; format: functional
Vibrio sp. [17] = test: Antibacterial activity against Vibrio sp. assessed as growth inhibition at 0.004 ug/ml by broth microdilution method; format: functional
Salmonella enteritidis = test: Antibacterial activity against Salmonella enterica serovar Enteritidis by broth microdilution method; format: functional, Salmonella enterica subsp. enterica serovar Enteritidis
Campylobacter sp. [18] = test: Antibacterial activity against Campylobacter sp. assessed as growth inhibition at =<0.002 ug/ml by broth microdilution method; format: functional
Escherichia coli [19] = test: Antibacterial activity against enteroaggregative Escherichia coli by broth microdilution method; format: functional
Aeromonas sp. [20] = test: Antibacterial activity against Aeromonas sp. assessed as growth inhibition at =>4 ug/ml by broth microdilution method; format: functional
Campylobacter sp. [21] = test: Antibacterial activity against Campylobacter sp. assessed as growth inhibition at 0.016 ug/ml by broth microdilution method; format: functional
Campylobacter sp. [22] = test: Antibacterial activity against Campylobacter sp. assessed as growth inhibition at 0.03 ug/ml by broth microdilution method; format: functional
Shigella sp. [23] = test: Antibacterial activity against Shigella sp. assessed as growth inhibition at 0.004 ug/ml by broth microdilution method; format: functional
Shigella sp. [24] = test: Antibacterial activity against Shigella sp. assessed as growth inhibition at 0.06 ug/ml by broth microdilution method; format: functional
Yersinia sp. [25] = test: Antibacterial activity against Yersinia sp. assessed as growth inhibition at =<0.002 ug/ml by broth microdilution method; format: functional
Aeromonas veronii [26] = test: Antibacterial activity against Aeromonas veronii assessed as percent susceptible isolates by broth microdilution method; format: functional
Yersinia enterocolitica [27] = test: Antibacterial activity against Yersinia enterocolitica assessed as percent susceptible isolates by broth microdilution method; format: functional
Vibrio cholerae [28] = test: Antibacterial activity against Vibrio cholerae by broth microdilution method; format: functional
Aeromonas sp. [29] = test: Antibacterial activity against Aeromonas sp. assessed as growth inhibition at 0.06 ug/ml by broth microdilution method; format: functional
Vibrio sp. [30] = test: Antibacterial activity against Vibrio sp. assessed as growth inhibition at 0.03 ug/ml by broth microdilution method; format: functional
Shigella boydii = test: Antibacterial activity against Shigella boydii assessed as percent susceptible isolates by broth microdilution method; format: functional; settings: pooled result: one value given for 3 cell lines, strains, targets or settings
Vibrio sp. [31] = test: Antibacterial activity against Vibrio sp. assessed as growth inhibition at =<0.002 ug/ml by broth microdilution method; format: functional
Escherichia coli [32] = test: Antibacterial activity against Escherichia coli assessed as growth inhibition at =<0.002 ug/ml by broth microdilution method; format: functional
Salmonella sp. [33] = test: Antibacterial activity against Salmonella sp. assessed as growth inhibition at 0.016 ug/ml by broth microdilution method; format: functional
Campylobacter sp. [34] = test: Antibacterial activity against Campylobacter sp. assessed as growth inhibition at 0.25 ug/ml by broth microdilution method; format: functional
Vibrio fluvialis [35] = test: Antibacterial activity against Vibrio fluvialis assessed as percent resistant isolates by broth microdilution method; format: functional
Yersinia enterocolitica [36] = test: Antibacterial activity against Yersinia enterocolitica by broth microdilution method; format: functional
Escherichia coli [37] = test: Antibacterial activity against enteropathogenic Escherichia coli by broth microdilution method; format: functional
Escherichia coli [38] = test: Antibacterial activity against enterotoxigenic Escherichia coli by broth microdilution method; format: functional
Vibrio cholerae [39] = test: Antibacterial activity against Vibrio cholerae assessed as percent susceptible isolates by broth microdilution method; format: functional
Salmonella sp. [40] = test: Antibacterial activity against Salmonella sp. assessed as growth inhibition at 0.12 ug/ml by broth microdilution method; format: functional
[41] = Escherichia coli, read-out: MIC50
[42] = Escherichia coli, read-out: MIC90
[43] = Escherichia coli, read-out: MIC

**Q.** Which results are given for `CC1Sc2c(C(=O)O)c(=O)c3cc(F)c(N4CCNCC4)cc3n21` (stereo unspecified) [ULIFLOXACIN]?
**A.** inhibition at 0.016 µg/mL (Aeromonas sp. [1]): 78%; MIC50 (Campylobacter coli): 30 ng/mL (≈ 0.0859 µM); MIC90 (Campylobacter coli): > 2000 ng/mL; inhibition at 0.03 µg/mL (Aeromonas sp. [2]): 87%; MIC50 (Aeromonas caviae): 4 ng/mL (≈ 0.0114 µM); MIC90 (Aeromonas caviae): 60 ng/mL (≈ 0.172 µM); Activity (Vibrio parahaemolyticus): 0%; inhibition at 0.5 µg/mL (Escherichia coli [3]): 97%; inhibition at 0.004 µg/mL (Escherichia coli [4]): 27%; inhibition (INH) (Campylobacter sp. [5]): 100%; inhibition at 0.12 µg/mL (Shigella sp. [6]): 100%; inhibition at 0.004 µg/mL (Yersinia sp. [7]): 0%; MIC [8]: 8 ng/mL (≈ 0.0229 µM); MIC50 [8]: 8 ng/mL (≈ 0.0229 µM); MIC90 [8]: 16 ng/mL (≈ 0.0458 µM); MIC50 (Vibrio fluvialis [9]): 16 ng/mL (≈ 0.0458 µM); MIC90 (Vibrio fluvialis [9]): 30 ng/mL (≈ 0.0859 µM); Activity (Campylobacter jejuni): 14.7%; inhibition at 0.25 µg/mL (Aeromonas sp. [10]): 95%; MIC50 (Aeromonas veronii [11]): 4 ng/mL (≈ 0.0114 µM); MIC90 (Aeromonas veronii [11]): 60 ng/mL (≈ 0.172 µM); inhibition at 0.12 µg/mL (Yersinia sp. [12]): 100%; MIC50 (Vibrio alginolyticus): 16 ng/mL (≈ 0.0458 µM); MIC90 (Vibrio alginolyticus): 30 ng/mL (≈ 0.0859 µM); inhibition at 0.06 µg/mL (Yersinia sp. [13]): 98%; Activity (Escherichia coli [14]): 100%; MIC50 (Escherichia coli [15]): 8 ng/mL (≈ 0.0229 µM); MIC90 (Escherichia coli [15]): 60 ng/mL (≈ 0.172 µM); MIC50 (Escherichia coli [15]; [41]): 8 ng/mL (≈ 0.0229 µM); MIC90 (Escherichia coli [15]; [42]): 60 ng/mL (≈ 0.172 µM); MIC50 (Escherichia coli [16]): 8 ng/mL (≈ 0.0229 µM); MIC90 (Escherichia coli [16]): 8 ng/mL (≈ 0.0229 µM); inhibition at 0.004 µg/mL (Vibrio sp. [17]): 35%; MIC50 (Salmonella enteritidis): 8 ng/mL (≈ 0.0229 µM); MIC90 (Salmonella enteritidis): 30 ng/mL (≈ 0.0859 µM); inhibition (INH) (Campylobacter sp. [18]): 0%; MIC (Escherichia coli [19]): 4 ng/mL (≈ 0.0114 µM); MIC50 (Escherichia coli [19]): 4 ng/mL (≈ 0.0114 µM); MIC90 (Escherichia coli [19]): 8 ng/mL (≈ 0.0229 µM); MIC (Escherichia coli [19]; [43]): 4 ng/mL (≈ 0.0114 µM); MIC50 (Escherichia coli [19]; [41]): 4 ng/mL (≈ 0.0114 µM); MIC90 (Escherichia coli [19]; [42]): 8 ng/mL (≈ 0.0229 µM); inhibition (INH) (Aeromonas sp. [20]): 100%; inhibition at 0.016 µg/mL (Campylobacter sp. [21]): 8%; inhibition at 0.03 µg/mL (Campylobacter sp. [22]): 61%; inhibition at 0.004 µg/mL (Shigella sp. [23]): 62%; inhibition at 0.06 µg/mL (Shigella sp. [24]): 99%; inhibition (INH) (Yersinia sp. [25]): 0%; Activity (Aeromonas veronii [26]): 98%; Activity (Yersinia enterocolitica [27]): 100%; MIC50 (Vibrio cholerae [28]): 16 ng/mL (≈ 0.0458 µM); MIC90 (Vibrio cholerae [28]): 30 ng/mL (≈ 0.0859 µM); inhibition at 0.06 µg/mL (Aeromonas sp. [29]): 92%; inhibition at 0.03 µg/mL (Vibrio sp. [30]): 100%; Activity (Shigella boydii): 100%; inhibition (INH) (Vibrio sp. [31]): 15%; inhibition (INH) (Escherichia coli [32]): 0%; inhibition at 0.016 µg/mL (Salmonella sp. [33]): 85%; inhibition at 0.25 µg/mL (Campylobacter sp. [34]): 83%; Activity (Vibrio fluvialis [35]): 0%; MIC (Yersinia enterocolitica [36]): 8 ng/mL (≈ 0.0229 µM); MIC50 (Yersinia enterocolitica [36]): 8 ng/mL (≈ 0.0229 µM); MIC90 (Yersinia enterocolitica [36]): 16 ng/mL (≈ 0.0458 µM); MIC (Escherichia coli [37]): 4 ng/mL (≈ 0.0114 µM); MIC50 (Escherichia coli [37]): 8 ng/mL (≈ 0.0229 µM); MIC90 (Escherichia coli [37]): 8 ng/mL (≈ 0.0229 µM); MIC50 (Escherichia coli [37]; [41]): 8 ng/mL (≈ 0.0229 µM); MIC90 (Escherichia coli [37]; [42]): 8 ng/mL (≈ 0.0229 µM); MIC (Escherichia coli [38]): 4 ng/mL (≈ 0.0114 µM); MIC50 (Escherichia coli [38]): 4 ng/mL (≈ 0.0114 µM); MIC90 (Escherichia coli [38]): 8 ng/mL (≈ 0.0229 µM); MIC (Escherichia coli [38]; [43]): 4 ng/mL (≈ 0.0114 µM); MIC50 (Escherichia coli [38]; [41]): 4 ng/mL (≈ 0.0114 µM); MIC90 (Escherichia coli [38]; [42]): 8 ng/mL (≈ 0.0229 µM); Activity (Vibrio cholerae [39]): 100%; inhibition at 0.12 µg/mL (Salmonella sp. [40]): 100%
